Measurements from US7342033B2 (Vereniging Voor Christelijk Wetenschappelijk Onderwijs, priority 1999, dated 2008).

System: multiple sclerosis patients
Assay: Adverse events and tolerability in the same study
Assay type: in vivo, human
Description: We selected 9 women and 7 men (aged 30-66 years) with documented progression during the 24 months before inclusion, from a natural history study. Kurtzke's EDSS scores were between 3.0 (inclusive) and 7.5 (inclusive). All adverse events were documented; safety lab consisted of serum transaminases (monthly for 3 months and every 3 months thereafter) and hematology (CBC and differential every 6 months) after the start of treatment. The study was approved by the hospital ethics committee, and all patients gave informed consent.

`Nc1nc2ccc(OC(F)(F)F)cc2s1` [riluzole, (6-trifluoromethoxy)-2-benzothiazolamine)] was tested, and the “Medically severe adverse effects” value (14 patients who took medication for over three months) was “not observed”, the “Patients who needed intermittent reduction in dosage of study drug” value (of 16 patients, riluzole 2×50 mg daily) was “Five” and the “Patients who discontinued treatment because of side effects” value (of 16 patients, headache in one, increase in spasticity in the other) was “Two”.
